Results: article PMC8000041, “New Insights into the Metabolism of the Flavanones Eriocitrin and Hesperidin: A Comparative Human Pharmacokinetic Study” (Antioxidants, 2021)
Where two headings read alike, the source gives them in different places.

Legend:
[1] = Urinary excretion of flavanone-derived metabolites after single intake of lemon or orange extract (UPLC-ESI-QTOF-MS); assay type: in vivo, human; settings: for Urinary excretion F1: urine fraction 0-4 h; for Urinary excretion F1 / Urinary excretion Total F / Urinary excretion F2 / Urinary excretion F3 / Urinary excretion F4: mean ± SD; for Urinary excretion Total F: sum of fractions F1-F4 (24 h); for Urinary excretion F2: urine fraction 4-8 h; for Urinary excretion F3: urine fraction 8-10 h; for Urinary excretion F4: urine fraction 10-24 h; for Occurrence Urine LE (number of volunteers in whom the metabolite was detected): after consuming lemon extract; for Occurrence Urine LE (number of volunteers in whom the metabolite was detected) / Occurrence Urine OE (number of volunteers in whom the metabolite was detected): n = 16 volunteers; for Occurrence Urine OE (number of volunteers in whom the metabolite was detected): after consuming orange extract
Description: Secondary endpoints involved the evaluation of post-prandial changes in several biomarkers dealing with metabolism, inflammation, and oxidative stress after a high-fat-high-sugars meal. The design was a randomized pharmacokinetic, double-blind, crossover, single-dose trial consisted of 2 test-phases. The volunteers were randomly allocated into two groups using a computerized random number list. Each group consumed one of the citrus extracts by following a test-phase that lasted for 1 day for blood sampling and urine collection, a 2-week washout period between each test phase, and crossover before consuming the other extract. The volunteers were instructed to avoid the consumption of flavanone-containing products, from a list provided by the researchers, for 1 week before the study and during the wash-out phase (citrus fruit juices, tomatoes, tomato-based sauces (like ‘ketchup’), peppers, almonds, etc.). […] The 3 capsules provided a total of 1.95 g orange extract, containing 260 mg hesperidin, and 3.1 g lemon extract, containing 260 mg eriocitrin. […] Untreated urine samples were aliquoted and frozen at −80 °C for up to 4 weeks until analyses, avoiding freeze-thaw cycles to avoid metabolites’ deconjugation. Moreover, three measurements of blood pressure and heart rate were taken before each time-point of blood withdrawal. […] A previously validated method for analyzing phenolic metabolites in biological samples, including flavanone-derived metabolites, was used. […] After centrifugation at 14,000× g for 10 min at 4 °C, the supernatant was evaporated in a speed vacuum concentrator. Finally, samples were re-suspended in 100 µL of methanol, filtered through a 0.22 µm cellulose filters before analysis by UPLC- ESI-QTOF-MS. […] A targeted screening strategy was applied to identify metabolites that could be present after consuming the citrus extracts. Twenty-eight possible compounds were browsed in all the samples. The list of compounds included the polyphenols present in the extracts, with particular focus on the flavanone rutinosides hesperidin and eriocitrin, their respective aglycones hesperetin, and eriodictyol, as well as their derived phase-II conjugates (glucuronides, sulfates, sulfoglucuronides, etc.). The exact mass of each proposed compound was extracted using an extraction window of 0.01 m/z. The metabolites hesperetin 7-O-glucuronide, hesperetin 3′-O-glucuronide, hesperetin 3-O-sulfate, naringenin 4′-O-glucuronide, and naringenin 7′-O-glucuronide were quantified with their corresponding standards. […] The parent phenolic compounds were quantified with their corresponding standards. In the case of some relevant conjugated metabolites, which standards were not available (eriodictyol and homoeriodictyol conjugates), their quantification was achieved by using relative response factors (RRFs) as previously described. Briefly, RRFs are useful to check the different responses of metabolites in the mass spectrometer vs. their UV signal. While the ionization response of free vs. conjugated forms is usually very different, their UV signal response is quite similar. To this purpose, we injected in a HPLC-DAD-ESI-Q (MS) the plasma samples (n = 5) with the highest concentrations of those conjugated metabolites. Concentrations were calculated by integrating the area from their corresponding UV peaks and compared with the UV peak area of a known concentration of their corresponding available parent compounds (eriodictyol and homoeriodictyol). The concentrations calculated were used to compare the MS response for each conjugated-aglycone pair.

[2] = Plasma metabolites and pharmacokinetics after single intake of lemon or orange extract (UPLC-ESI-QTOF-MS, non-compartmental analysis); assay type: in vivo, human; settings: for Occurrence Plasma LE (number of volunteers in whom the metabolite was detected): after consuming lemon extract; for Occurrence Plasma LE (number of volunteers in whom the metabolite was detected) / Occurrence Plasma OE (number of volunteers in whom the metabolite was detected): n = 16 volunteers; for Occurrence Plasma OE (number of volunteers in whom the metabolite was detected): after consuming orange extract; for Tmax / Cmax / AUC(0-t): mean ± SD; for AUC(0-t): read-out: AUC0-t
Description: Secondary endpoints involved the evaluation of post-prandial changes in several biomarkers dealing with metabolism, inflammation, and oxidative stress after a high-fat-high-sugars meal. The design was a randomized pharmacokinetic, double-blind, crossover, single-dose trial consisted of 2 test-phases. The volunteers were randomly allocated into two groups using a computerized random number list. Each group consumed one of the citrus extracts by following a test-phase that lasted for 1 day for blood sampling and urine collection, a 2-week washout period between each test phase, and crossover before consuming the other extract. The volunteers were instructed to avoid the consumption of flavanone-containing products, from a list provided by the researchers, for 1 week before the study and during the wash-out phase (citrus fruit juices, tomatoes, tomato-based sauces (like ‘ketchup’), peppers, almonds, etc.). […] The 3 capsules provided a total of 1.95 g orange extract, containing 260 mg hesperidin, and 3.1 g lemon extract, containing 260 mg eriocitrin. […] Plasma samples were obtained by centrifugation of peripheral venous blood at 14,000× g for 15 min at 4 °C and immediately frozen at −80 °C. Glucose, total cholesterol, HDL-cholesterol, LDL-cholesterol, triglycerides, insulin, homeostatic model assessment insulin resistance (HOMA-IR), gamma-glutamyl transferase (GGT), and alanine aminotransferase (ALT) were determined as previously reported. […] A previously validated method for analyzing phenolic metabolites in biological samples, including flavanone-derived metabolites, was used. […] After centrifugation at 14,000× g for 10 min at 4 °C, the supernatant was evaporated in a speed vacuum concentrator. Finally, samples were re-suspended in 100 µL of methanol, filtered through a 0.22 µm cellulose filters before analysis by UPLC- ESI-QTOF-MS. A targeted screening strategy was applied to identify metabolites that could be present after consuming the citrus extracts. Twenty-eight possible compounds were browsed in all the samples. The list of compounds included the polyphenols present in the extracts, with particular focus on the flavanone rutinosides hesperidin and eriocitrin, their respective aglycones hesperetin, and eriodictyol, as well as their derived phase-II conjugates (glucuronides, sulfates, sulfoglucuronides, etc.). The exact mass of each proposed compound was extracted using an extraction window of 0.01 m/z. The metabolites hesperetin 7-O-glucuronide, hesperetin 3′-O-glucuronide, hesperetin 3-O-sulfate, naringenin 4′-O-glucuronide, and naringenin 7′-O-glucuronide were quantified with their corresponding standards. […] The parent phenolic compounds were quantified with their corresponding standards. In the case of some relevant conjugated metabolites, which standards were not available (eriodictyol and homoeriodictyol conjugates), their quantification was achieved by using relative response factors (RRFs) as previously described. Briefly, RRFs are useful to check the different responses of metabolites in the mass spectrometer vs. their UV signal. While the ionization response of free vs. conjugated forms is usually very different, their UV signal response is quite similar. To this purpose, we injected in a HPLC-DAD-ESI-Q (MS) the plasma samples (n = 5) with the highest concentrations of those conjugated metabolites. Concentrations were calculated by integrating the area from their corresponding UV peaks and compared with the UV peak area of a known concentration of their corresponding available parent compounds (eriodictyol and homoeriodictyol). The concentrations calculated were used to compare the MS response for each conjugated-aglycone pair. Statistical analyses were carried out using the SPSS Software, version 23.0 (SPSS Inc., Chicago, IL, USA). Data are expressed as mean ± SD. The empirical distribution of data with the normality assumption was tested with the Shapiro-Wilk test. […]

[3] = lemon extract (3.1 g, 260 mg eriocitrin)
[4] = orange extract (1.95 g, 260 mg hesperidin)
[5] = human, oral, 3.1 g, after lemon extract
[6] = human, oral, 3.1 g, after lemon extract, read-out: Tmax
[7] = human, oral, 1.95 g, after orange (hesperidin) extract

SMILES	Urinary excretion F1 [1, 3]	Urinary excretion F2 ([1]; lemon extract)	Urinary excretion F3 ([1]; lemon extract)	Urinary excretion F4 ([1]; lemon extract)	Urinary excretion F1 [1, 4]	Urinary excretion Total F ([1]; orange extract)	Urinary excretion F2 ([1]; orange extract)	Urinary excretion F3 ([1]; orange extract)	Urinary excretion F4 ([1]; orange extract)	Occurrence Urine LE (number of volunteers in whom the metabolite was detected) [1]	Occurrence Urine OE (number of volunteers in whom the metabolite was detected) [1]	Occurrence Plasma LE (number of volunteers in whom the metabolite was detected) [2]	Occurrence Plasma OE (number of volunteers in whom the metabolite was detected) [2]	Cmax [2, 5]	AUC(0-t) [2, 5]	Tmax [2, 6]	also measured
O=C1CC(c2ccc(OC3OC(C(=O)O)C(O)C(O)C3O)c(O)c2)Oc2cc(O)cc(O)c21 (stereo not drawn) [M4, Eriodictyol glucuronide-3]	9.4 ± 16.9 µg/mg creatinine	33.8 ± 64.1 µg/mg creatinine	27.7 ± 40.1 µg/mg creatinine	4.3 ± 6.4 µg/mg creatinine	0.1 ± 0.2 µg/mg creatinine	3.4 ± 6.2 µg/mg creatinine	0.5 ± 0.9 µg/mg creatinine	0.7 ± 0.7 µg/mg creatinine	2.1 ± 4.5 µg/mg creatinine	16	11	16	7	639 ± 802 nM	2.29 ± 3.49 µM·h	6 h	Urinary excretion Total F ([1]; lemon extract): 75.1 ± 128 µg/mg creatinine; Tmax ([2]; after lemon extract): 5.9 ± 2.6 h
O=C1C[C@@H](c2ccc(O)cc2)Oc2cc(O)cc(O)c21 [M15, Naringenin]	–	–	–	–	–	–	–	–	–	9	5	6	2	–	–	–	–
COc1cc([C@@H]2CC(=O)c3c(O)cc(O)cc3O2)ccc1O [M16, Homoeriodictyol]	–	–	–	–	–	–	–	–	–	12	1	15	1	–	–	–	–
COc1ccc(C2CC(=O)c3c(O)cc(O)cc3O2)cc1OS(=O)(=O)O (stereo not drawn) [M14, Hesperetin 3′-O-sulfate]	1.9 ± 2.6 µg/mg creatinine	4.3 ± 4.5 µg/mg creatinine	3.3 ± 3.1 µg/mg creatinine	0.7 ± 0.6 µg/mg creatinine	0.1 ± 0.3 µg/mg creatinine	3.8 ± 7.3 µg/mg creatinine	1.2 ± 3.3 µg/mg creatinine	1.9 ± 3.1 µg/mg creatinine	0.6 ± 0.6 µg/mg creatinine	16	16	16	16	527 ± 358 nM	2.04 ± 1.81 µM·h	6.5 ± 1.9 h	Urinary excretion after lemon extract vs. orange extract ([1]; ratio lemon / orange extract intake): around 2 fold; Tmax ([2]; after orange (hesperidin) extract): 8.4 ± 1.5 h; Cmax [2, 7]: 178 ± 286 nM; AUC(0-t) [2, 7]: 0.635 ± 1.17 µM·h; Tmax ([2]; human, oral, 1.95 g, after orange (hesperidin) extract, read-out: Tmax): 8.5 h
O=C1C[C@@H](c2ccc(O)c(O)c2)Oc2cc(O)cc(O)c21 [M12, Eriodictyol]	–	–	–	–	–	–	–	–	–	14	4	16	0	–	–	–	–
